The subject of one test is mastocytosis. Particulars: cited from earlier work; for major response: more than 50% improvement in symptoms and signs; for overall response rate: sum of CR, MR and PR.
Test [1] relates to severe systemic mastocytosis. The test is described as follows: post-hoc analysis of pooled phase 2 studies AB06013 and AB04010, cohort simulating severe systemic mastocytosis. The test is classed as in vivo, human. The following applies: for Cumulative response rate (≥75 %) from W8 to W24, Hamilton or FIS / Cumulative response rate (≥75 %) from W8 to W24, Flushes or Pruritus: 2-handicap response rate; for Cumulative response rate (≥75 %) from W8 to W24, Hamilton or FIS: at least one handicap from [Hamilton or FIS]; for Cumulative response rate (≥75 %) from W8 to W24, Flushes or Pruritus: at least one handicap from [flushes or pruritus].

Test [2] concerns Ba/F3 cells expressing human or mouse wild-type c-Kit. The following applies: read-out: IC50, stem cell factor-induced proliferation and c-Kit tyrosine phosphorylation; cited from earlier work.
The test system of test [3] is Ba/F3 cells expressing the D816V c-Kit mutation. The following applies: read-out: IC50, proliferation; cited from earlier work.
Where [4] appears, read: entire evaluable study population (N=80).
The mark [5] stands for this setting: missing data considered as failure (observed cases after W12).

The values that follow come from patent EP3359195B1 (AB Science, priority 2015, dated 2017).

Where two headings read alike, the source gives them in different places.

As for `Nc1nc(Cl)nc2c1ncn2[C@H]1C[C@H](O)[C@@H](CO)O1` [Cladribine], in the test on mastocytosis (setting [4]), the major response was 37% and the overall response rate is reported as 55%. Moreover, the overall response rate with mastocytosis (patients with ISM (N=22)) was 56%.

`Cc1ccc(NC(=O)c2ccc(CN3CCN(C)CC3)cc2)cc1Nc1nccc(-c2cccnc2)n1` [imatinib mesilate]: in the test with mastocytosis (setting [4]), the major response is recorded as 9% and the overall response rate is 18%. For the same compound, in the test with mastocytosis (patients with ISM (N=22)), the overall response rate is listed as 14%.

Regarding `NC(=O)NO` [hydroxyurea], in the test on mastocytosis (setting [4]), the major response is 0%. Further, the results for the overall response rate in the test with mastocytosis (setting [4]) and in the test with mastocytosis (patients with ISM (N=22)) were 19% and 0%, respectively.

Turning to `Cc1ccc(NC(=O)c2ccc(CN3CCN(C)CC3)cc2)cc1Nc1nc(-c2cccnc2)cs1` [masitinib, 4-(4-methylpiperazin-1-ylmethyl)-N-[4-methyl-3-(4-pyridin-3ylthiazol-2-ylamino)phenyl]benzamide], in test [1], the “Cumulative response rate (≥75 %) from W8 to W24, Hamilton or FIS” value is given as approximately 10% and the “Cumulative response rate (≥75 %) from W8 to W24, Flushes or Pruritus” value is recorded as “approximately 40%”. In test [1] (listed as Masitinib), the “Cumulative response rate (≥75 %) from W8 to W24, Hamilton or FIS” value is given as 10.3% and the “Cumulative response rate (≥75 %) from W8 to W24, Flushes or Pruritus” value was 38.8%. Further, in test [1] (Week 12, at least one severe handicap among pruritus, flushes, fatigue or depression at baseline, missing data considered as failure, listed as Masitinib), the “Overall response ≥ 75%” value was 25.0%. The “Overall response ≥ 75%” value in test [1] (Week 12, patients with both pruritus score ≥9 and flushes per week ≥8 at baseline (4 patients, 8 handicaps)) is listed as 1/8 (12.5%). In test [1] (Week 24, at least one severe handicap among pruritus, flushes, fatigue or depression at baseline, missing data considered as failure), the “Overall response ≥ 75%” value is listed as 23.5%. The “Overall response ≥ 75%” value in test [1] (Week 24, at least one severe handicap among pruritus, flushes, fatigue or depression at baseline, missing data considered as failure, listed as Masitinib) is 23.5%. Besides, the “Overall response ≥ 75%” value in test [1] (Week 24, patients with both pruritus score ≥9 and flushes per week ≥8 at baseline (4 patients, 8 handicaps)) is 50%. In addition, the “Cumulative response rate (≥75 %) from W8 to W24, Overall Response” value in test [1] (at least one handicap among pruritus, flushes, fatigue or depression, W8, W12, W24) is on record as 26.1%. In addition, in test [1] (setting [5]), the “Cumulative response rate (≥75 %) from W8 to W24, FIS only” value was 8.0%; the “Cumulative response rate (≥75 %) from W8 to W24, Flushes only” value is recorded as 52.8%; the “Cumulative response rate (≥75 %) from W8 to W24, Hamilton only” value is 16.7%; the “Cumulative response rate (≥75 %) from W8 to W24, Micturition frequency (pollakiuria) only” value is 1.8%. Also, in test [1] (setting [5]), the “Cumulative response rate (≥75 %) from W8 to W24, Pruritus only” value is 28.6% and the “Cumulative response rate (≥75 %) from W8 to W24, Stool frequency (diarrhea) only” value is 18.4%. The IC50 in test [2] is 150 ± 80 nM. Further, the IC50 in test [3] is 5000 ± 2000 nM.
